Data from paper PMC3456874, “Fragment Screening at Adenosine-A3 Receptors in Living Cells Using a Fluorescence-Based Binding Assay” (Chemistry & Biology, 2012).
“And” between values parts separate entries of the source, which are not always exact repeats. Equal entries are not always repeated. Where two headings read alike, the source gives them in different places. Each block holds one compound with its values, some of them ahead of it.

Key:
A3-YFP = A3-YFP receptor internalization (granularity analysis) in CHO A3-YFP cells
human A3AR [1] = biological target: T1, human A3AR (Homo sapiens, UniProt P0DMS8); test: High-content fluorescent ligand (CA200645) competition binding assay in live CHO CRE-SPAP cells expressing the A3AR; conditions: for remaining binding at 1000 µM: read-out: % of CA200645 binding (% DMSO control)
T1 sequence (P0DMS8 1-318): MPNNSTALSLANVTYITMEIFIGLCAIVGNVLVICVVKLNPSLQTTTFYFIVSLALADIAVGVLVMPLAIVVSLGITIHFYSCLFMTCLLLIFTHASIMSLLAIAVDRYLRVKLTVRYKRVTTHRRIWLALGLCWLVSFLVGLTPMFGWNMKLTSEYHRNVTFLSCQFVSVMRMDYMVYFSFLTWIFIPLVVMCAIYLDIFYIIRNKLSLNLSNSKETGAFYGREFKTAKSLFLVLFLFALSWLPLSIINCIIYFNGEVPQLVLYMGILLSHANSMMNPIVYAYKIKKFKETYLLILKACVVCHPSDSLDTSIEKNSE

human A3AR [2] = biological target: T1, human A3AR; test: cell-based
human A3AR [3] = biological target: T1, human A3AR; test: CRE-SPAP gene transcription assay (shift of NECA-mediated inhibition of forskolin-stimulated SPAP response)
human A1AR [4] = biological target: T2, human A1AR (Homo sapiens, UniProt P30542); test: cell-based
T2 sequence (P30542 1-326): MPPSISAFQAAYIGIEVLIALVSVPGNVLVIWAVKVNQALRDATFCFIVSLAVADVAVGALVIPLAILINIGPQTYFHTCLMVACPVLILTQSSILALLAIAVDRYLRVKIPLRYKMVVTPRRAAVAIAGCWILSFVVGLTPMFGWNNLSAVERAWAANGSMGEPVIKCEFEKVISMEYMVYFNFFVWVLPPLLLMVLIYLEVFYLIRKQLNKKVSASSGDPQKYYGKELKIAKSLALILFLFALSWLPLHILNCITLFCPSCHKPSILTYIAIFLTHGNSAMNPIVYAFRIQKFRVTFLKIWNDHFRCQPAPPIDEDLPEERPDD

human A1AR [5] = biological target: T2, human A1AR; test: High-content fluorescent ligand (CA200645) competition binding assay in live CHO-A1 cells; conditions: for inhibition at 10 µM: read-out: inhibition of CA200645 binding at the A1AR; for A1 % inhibition (Table S3): top concentration of compound tested, quoted where less than 50% inhibition of total binding
human A3AR [6] = biological target: T1, human A3AR
human A1AR [7] = biological target: T2, human A1AR
[8] = pKi at the adenosine A3 receptor (Table S2), mean ± s.e.m from 3 separate experiments
[9] = A3 pKi (Table S3), mean ± s.e.m

SMILES: CNC(=O)[C@H]1O[C@@H](n2cnc3c(NCc4cccc(I)c4)nc(Cl)nc32)[C@H](O)[C@@H]1O [2-Cl IB-MECA]
A3-YFP internalization / agonist action (A3-YFP): stimulated A3-YFP internalization

Ki (human A3AR [1]; [8]): 3.16 µM
remaining binding at 1000 µM (human A3AR [1]): 13%
SMILES: Nc1ccc2[nH]ncc2c1 [AC 30454]

Ki (human A3AR [1]; [8]): 1.2 µM
remaining binding at 1000 µM (human A3AR [1]): 10.4%
SMILES: Cc1cc2cc(N)ccc2[nH]1 [AC 34875]

Ki (human A3AR [1]; [8]): 2.95 µM
remaining binding at 1000 µM (human A3AR [1]): 10.3%
SMILES: Nc1ccc(C(F)(F)F)cc1N [BTB 07340]

Ki (human A3AR [2]): 0.00661 µM
SMILES: Nc1nc2ccc(Cl)cc2c2nc(-c3ccco3)nn12 [CGS 15943, reference compound]

displacement of CA200645 binding (human A3AR [1]; A3AR, agonist competition curves): only partial displacement
SMILES: CCNC(=O)[C@H]1O[C@@H](n2cnc3c(N)nc(NCCc4ccc(CCC(=O)O)cc4)nc32)[C@H](O)[C@@H]1O [CGS 21680, reference compound]

Kb (human A3AR [3]): 0.00166 µM
Ki (human A3AR [2]): 0.00309 µM
Ki (human A1AR [4]): 1.17 µM
SMILES: COc1ccc(-n2nc3c(NC(=O)c4ccccc4)nc4ccccc4n3c2=O)cc1 [Compound 1]

Ki (human A3AR [2]): 0.0776 µM
SMILES: COc1ccc(-n2nc3c(=O)[nH]c4ccccc4n3c2=O)cc1 [Compound 2]

Ki (human A3AR [2]): 2.63 µM
SMILES: COc1ccc(NN=c2[nH]c3ccccc3[nH]c2=O)cc1 [Compound 3]

Ki (human A3AR [2]): > 100 µM
SMILES: O=C(Nc1cnc2ccccc2c1)c1ccccc1 [Compound 4]

Ki (human A3AR [2]): > 10000 µM
SMILES: Nc1cnc2ccccc2c1 [Compound 5]

Ki (human A3AR [2]): 525 µM
SMILES: COc1ccc(-n2ccnc2)cc1 [Compound 6]

Ki (human A3AR [2]): 20.4 µM
SMILES: COc1ccc(NC(C)=O)cc1 [Compound 7]

Ki (human A3AR [2]): 3.24 µM
SMILES: Nc1cccc(-c2nc3ccccc3[nH]2)c1 [Compound 8]

inhibition at 100 µM (human A3AR [1]; read-out: % inhibition of CA200645 binding at A3AR): 41.2 ± 7.3%
SMILES: Nc1ccc(-c2nc3ccccc3[nH]2)cc1 [Compound 9]

fold increase in A3AR affinity compared to DP01095 (human A3AR [1]): 3 fold
Ki (human A3AR [1]; [9]): 0.0977 µM
inhibition at 10 µM (human A1AR [5]): < 50%
A1 % inhibition (Table S3) (human A1AR [5]): 38.9 ± 8.3%
SMILES: O=C(Nc1ccccc1-c1nc2ccccc2[nH]1)c1cccnc1 [Compound 10]

Ki (human A3AR [1]; [9]): 0.166 µM
inhibition at 10 µM (human A1AR [5]): < 50%
A1 % inhibition (Table S3) (human A1AR [5]): 40.6 ± 7.3%
SMILES: O=C(Nc1ccccc1-c1nc2ccccc2[nH]1)c1ccco1 [Compound 11]

Ki (human A3AR [1]; [9]): 0.257 µM
inhibition at 10 µM (human A1AR [5]): < 50%
A1 % inhibition (Table S3) (human A1AR [5]): 47.9 ± 9.7%
SMILES: O=C(Nc1ccccc1-c1nc2ccccc2[nH]1)c1cccs1 [Compound 12]

remaining binding at 1000 µM (human A3AR [1]): 36.3%
Ki (human A3AR [2]): 0.363 µM and 0.331 µM
SMILES: Nc1ccccc1-c1nc2ccccc2[nH]1 [DP 01095]

pIC50 for inhibition of CA200645 binding (agonists) (human A3AR [1]; A3AR, n = 4): 7.23 ± 0.23
SMILES: CCCCC#Cc1nc(NC)c2ncn([C@@H]3O[C@H](CO)[C@@H](O)[C@H]3O)c2n1 [HEMADO, reference compound]
A3-YFP internalization / agonist action (A3-YFP): stimulated A3-YFP internalization

SMILES: CNC(=O)[C@H]1O[C@@H](n2cnc3c(NCc4cccc(I)c4)ncnc32)[C@H](O)[C@@H]1O [IB-MECA]
A3-YFP internalization / agonist action (A3-YFP): caused A3-YFP internalisztion

Ki (human A3AR [1]; [8]): 0.794 µM
remaining binding at 1000 µM (human A3AR [1]): 31.1%
SMILES: COC(=O)C1Cc2ccccc2N1 (centres unmarked) [MO 00997]

Ki (human A3AR [6]): 0.0562 µM
Ki (human A1AR [7]): 0.0417 µM
SMILES: CCCn1c(=O)[nH]c2nc(-c3ccc(S(=O)(=O)N4CCN(c5ccc(Cl)cc5)CC4)cc3)[nH]c2c1=O [PSB 603]

Ki (human A3AR [2]): 0.186 µM
SMILES: Nc1nc2c(cnn2CCc2ccccc2)c2nc(-c3ccco3)nn12 [SCH 58261, reference compound]

SMILES: Cc1cc(N)c(N)cc1Cl [TL 00770]
Ki (human A3AR [1]; [8]): 1 µM
remaining binding at 1000 µM (human A3AR [1]): 23.5%

Kb (human A3AR [3]): 0.407 µM
Ki (human A3AR [2]): 0.182 µM
SMILES: Nc1nc(NCCc2ccc(O)cc2)nc2nc(-c3ccco3)nn12 [ZM 241385, reference compound]
